Source: paper PMC11320734 (ACS Pharmacology & Translational Science, 2024)
Read-outs that look alike come from different tables or passages of the source.

Key:
[1] = Parallel artificial membrane permeability (PAMPA) assay; type: in vitro ADME; conditions: for Papp: PAMPA, read-out: PAMPA Peff
Method: The general permeability of the compound was assessed using the parallel artificial membrane permeability (PAMPA) assay and the permeability-glycoprotein (P-gp) assay was used to specifically test for brain penetration. PAMPA data were generated as previously reported by our group.[44] The P-gp assay, which evaluates the brain penetration of test compounds, was performed as described elsewhere.[45] Briefly, transfected porcine kidney epithelial (LLC-PK1) cells expressing human or mouse P-gp were cultured on 96-well semipermeable filter membrane plates (Millipore, Darmstadt, Germany). Cells formed a polarized monolayer with tight junctions that acted as a barrier between apical and basolateral compartments. P-gp was expressed in the apical-facing membrane of the monolayer (tightness confirmed using Lucifer yellow). To determine the unidirectional permeability (Papp) of RNB-61, samples were added separately to the apical (for A > B Papp) and basolateral (for B > A Papp) sides of the cell monolayer (i.e., donor compartments), and RNB-61 movement into the respective receiver compartments was measured by LC-MS/MS over a 3 h incubation at 37 °C. The effect of P-gp was measured by expressing the efflux ratio of the unidirectional A > B and B > A Papp values. The mean permeability (A > B and B > A Papp) was determined in the absence of P-gp via the addition of the selective P-gp inhibitor, tariquidar.

[2] = Brain penetration study with/without P-gp inhibitor tariquidar; type: in vivo, male C57/BL6 mice
Method: (§1) To characterize the pharmacokinetic behavior of RNB-61, studies in rodents were conducted at the in vivo facility of F. Hoffmann-La Roche Ltd. (Basel, Switzerland). The plasma-concentration time profile was studied in rodents after single-dose RNB-61 administration by oral gavage (p.o. microsuspension excipients 7.5% gelatin/0.62% NaCl) and intravenous bolus injection (i.v. solution, excipients NMP:NaCl (30:70)). Three groups of male Wistar rats (n = 2 per group) were administered RNB-61 either at 1 mg kg^–1 i.v., 3 mg kg^–1 p.o., or 26 mg kg^–1 p.o. Plasma samples were drawn at 0.083, 0.25, 0.5, 1, 2, 4, 8, and 24 postdose in the i.v. group and at 0.25, 0.5, 0.75, 1.5, 3, 5, 8, and 24 h postdose in the p.o. groups. The samples were analyzed for RNB-61 concentration by LC/MS-MS. For the LC/MS-MS analysis, and the samples were prepared by adding 100 uL to 400 uL ACN with ISTD (100 ng/mL Bosantan in ACN/MeOH 1/1), stirring, and centrifuging (4000 rpm, 65’). 100 uL of the supernatant were pipetted and diluted with 400 μL H2O at pH 3. The analytes were separated on a Restek C18 column (5 μm, 1.0 × 3 mm). The mobile phase consisted of water containing 0.1% HCOOH as solvent A and ACN containing 0.1% HCOOH as solvent B. The gradient curve starting with 5% B was changed to 90% B between 0.4 and 0.6 min and further increased to 95% B between 0.6 and 1.2 min. This was maintained until 1.4 min and then reduced and kept at 5% B between 1.45 and 2.0 min. The mass spectrometer was operated in the positive mode. All LC-MS/MS was done using the Agilent RapidFire Analyzer software (version 4.3). The pharmacokinetic parameters were estimated by noncompartmental analysis in the Certara WinNonlin software (version 5.3). A similar study design was run in mice with three groups receiving 2 mg kg^–1 i.v., 4 mg kg^–1 p.o., or 26 mg kg^–1 p.o., and plasma sampling occurring in a composite profile (n = 2 for each time point) up to 7 or 24 h postdose. Male C57/BL6 mice (n = 5 per group) were used to study the influence of P-gp efflux on brain penetration. Two groups of mice were administered RNB-61 by i.v. bolus injection at 1 mg kg^–1 (2 groups). In order to block P-gp activity, an i.v. bolus of 5 mg kg^–1 tariquidar[46] was injected into one group 30 min prior to RNB-61. Plasma was collected at 0.083, 0.25, 0.5, 2, 4, and 7 h postdose in a composite profile. Brain, CSF, and vitreous body were collected at terminal time points 0.5, 2, 4, and 7 h postdose.

ABHD6 = ABHD6 (Homo sapiens, UniProt Q9BV23); assay: Endocannabinoid target profiling: ABHD6; type: biochemical
TRPV1 = TRPV1 (Homo sapiens, UniProt Q8NER1); assay: Endocannabinoid target profiling: TRPV1; conditions: Table S1; read-out: TRPV1 (Ki, IC50)
[3] = Aqueous stability assay (ASTA); type: physicochemical
Method: The stability of the compound was assessed using the aqueous stability assay (ASTA), as previously described.[37] In short, aqueous solutions of RNB-61 were prepared at 5 different pH values (range 1–10), added to incubation plates and shaken for 10 min at 37 °C. Solutions were transferred to a filter plate (Millipore MSGVN2250, pore size 0.22 μm) and filtered into V- bottom plates (ABGene, AB-0800) prior to heat-sealing. The procedure was repeated, increasing the 37 °C incubation time by 2 h. Samples were analyzed by HPLC at 0 and 2 h. A compound was classified as unstable if <90% of the initial concentration was detected after 2 h.

FAAH = FAAH (Homo sapiens, UniProt O00519); assay: Endocannabinoid target profiling: FAAH; type: biochemical; conditions: screening concentration 10 μM
[4] = Rodent single-dose PK studies (summary rats and mice); type: in vivo
Method: as §1, with “Two groups of mice were administered RNB-61 by i.v. bolus injection at 1 mg kg^–1 (2 groups). In order to block P-gp activity, an i.v. bolus of 5 mg kg^–1 tariquidar[46] was injected into one group 30 min prior to RNB-61. Plasma was collected at 0.083, 0.25, 0.5, 2, 4, and 7 h postdose in a composite profile. Brain, CSF, and vitreous body were collected at terminal time points 0.5, 2, 4, and 7 h postdose.” left out

[5] = RNB-61 1 mg kg^–1 i.v. + tariquidar 5 mg kg^–1 i.v.
[6] = RNB-61 1 mg kg^–1 i.v., no tariquidar

Chain of ABHD6 (Q9BV23 whole entry, species assumed): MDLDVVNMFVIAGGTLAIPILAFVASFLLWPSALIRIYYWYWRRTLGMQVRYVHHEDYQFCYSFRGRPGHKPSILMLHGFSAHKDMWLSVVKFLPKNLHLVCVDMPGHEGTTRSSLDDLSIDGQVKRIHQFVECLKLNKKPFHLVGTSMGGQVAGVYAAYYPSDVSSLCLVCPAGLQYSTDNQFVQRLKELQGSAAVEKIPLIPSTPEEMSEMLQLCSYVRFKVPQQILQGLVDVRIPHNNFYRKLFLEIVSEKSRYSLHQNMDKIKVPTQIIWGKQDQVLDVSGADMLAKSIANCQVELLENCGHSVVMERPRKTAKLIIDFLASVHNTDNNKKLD
Chain of TRPV1 (Q8NER1 whole entry, species assumed): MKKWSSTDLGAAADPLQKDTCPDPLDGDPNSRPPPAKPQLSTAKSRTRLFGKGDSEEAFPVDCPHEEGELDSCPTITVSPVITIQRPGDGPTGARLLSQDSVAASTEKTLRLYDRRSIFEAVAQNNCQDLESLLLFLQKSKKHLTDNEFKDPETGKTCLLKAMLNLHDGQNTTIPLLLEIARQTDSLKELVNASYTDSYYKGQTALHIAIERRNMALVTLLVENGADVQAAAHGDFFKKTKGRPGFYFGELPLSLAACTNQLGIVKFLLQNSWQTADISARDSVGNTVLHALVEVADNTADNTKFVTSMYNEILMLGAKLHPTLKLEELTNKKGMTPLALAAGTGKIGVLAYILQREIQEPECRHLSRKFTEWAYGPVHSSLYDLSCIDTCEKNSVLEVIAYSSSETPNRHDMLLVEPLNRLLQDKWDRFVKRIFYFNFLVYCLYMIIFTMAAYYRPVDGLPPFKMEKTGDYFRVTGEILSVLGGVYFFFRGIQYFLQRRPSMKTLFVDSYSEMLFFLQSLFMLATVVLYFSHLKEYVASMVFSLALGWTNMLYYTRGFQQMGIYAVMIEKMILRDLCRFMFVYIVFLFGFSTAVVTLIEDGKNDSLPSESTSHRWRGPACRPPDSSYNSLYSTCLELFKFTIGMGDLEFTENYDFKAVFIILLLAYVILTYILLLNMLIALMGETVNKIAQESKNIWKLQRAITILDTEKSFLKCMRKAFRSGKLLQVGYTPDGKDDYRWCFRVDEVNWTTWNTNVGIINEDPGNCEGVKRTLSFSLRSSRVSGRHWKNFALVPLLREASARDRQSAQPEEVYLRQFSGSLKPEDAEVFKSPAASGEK
Chain of FAAH (O00519 whole entry): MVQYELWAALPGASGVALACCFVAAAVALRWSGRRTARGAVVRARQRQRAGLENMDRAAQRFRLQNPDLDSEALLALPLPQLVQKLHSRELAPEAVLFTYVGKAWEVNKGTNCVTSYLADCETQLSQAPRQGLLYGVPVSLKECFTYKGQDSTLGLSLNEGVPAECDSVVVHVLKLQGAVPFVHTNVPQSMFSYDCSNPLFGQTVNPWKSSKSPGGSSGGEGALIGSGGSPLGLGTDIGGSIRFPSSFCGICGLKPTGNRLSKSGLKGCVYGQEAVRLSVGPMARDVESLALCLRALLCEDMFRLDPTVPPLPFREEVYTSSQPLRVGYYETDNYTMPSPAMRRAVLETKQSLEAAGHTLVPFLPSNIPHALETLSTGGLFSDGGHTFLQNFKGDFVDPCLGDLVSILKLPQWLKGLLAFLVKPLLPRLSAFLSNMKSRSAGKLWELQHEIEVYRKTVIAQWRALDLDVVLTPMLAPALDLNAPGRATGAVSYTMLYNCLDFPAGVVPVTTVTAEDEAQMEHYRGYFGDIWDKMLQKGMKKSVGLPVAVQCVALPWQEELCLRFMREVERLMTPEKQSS

With Cn1c(C(C)(C)C)cc(=NC(=O)c2cc(C(F)(F)F)ccc2OCC(C)(C)O)n1CC1CCC1 [RNB-61] the “PAMPA %Acc” value [1] was 6%, the “PAMPA %Don” value [1] was 22% and the “PAMPA %Mem” value [1] was 72%. The “PAMPA Peff” value [1] was 2.14 × 10^–6 cm s^–1, the Papp ([1]; Table 1) was 2.14 ×10⁻⁶ cm/s and the Papp [1] was 0.9 ×10⁻⁶ cm/s. For the same compound, the “AUClast lower in the brain compared to plasma” value ([2]; 1 mg kg^–1 i.v., no tariquidar) was over 10 fold, the “peak brain concentration lower compared to plasma level” value ([2]; 1 mg kg^–1 i.v., no tariquidar) was over 20 fold and the “brain AUCinf” value [2, 5] was 4386 ng·h/mL. The “brain AUClast” value [2, 5] was 1877 ng·h/mL, the “brain Cmax” value [2, 5] was 342 ng/mL and the “brain AUCinf” value [2, 6] was 375 ng·h/mL. For the same compound, the “brain AUClast” value [2, 6] was 215 ng·h/mL, the “brain Cmax” value [2, 6] was 41.3 ng/mL and the half-life ([2]; male, C57/BL6, mouse, brain, iv, RNB-61 1 mg kg^–1 i.v., no tariquidar, read-out: brain T1/2 (converted)) was 5.98 h. It also gave a Tmax ([2]; male, C57/BL6, mouse, brain, iv, RNB-61 1 mg kg^–1 i.v., no tariquidar, read-out: brain Tmax) of 0.58 h, a Kp ([2]; male, C57/BL6, mouse, iv, ratio of AUClast in brain and plasma, 1 mg kg^–1 i.v., no tariquidar, read-out: brain-plasma partition coefficient Kp) of 0.088 and a Cmax ([2]; male, C57/BL6, mouse, plasma, iv, RNB-61 1 mg kg^–1 i.v., no tariquidar) of 972 ng/mL. It also gave an AUC(0-inf) ([2]; male, C57/BL6, mouse, plasma, iv, RNB-61 1 mg kg^–1 i.v., no tariquidar, read-out: plasma AUCinf) of 3320 ng·h/mL, an AUC(0-t) ([2]; male, C57/BL6, mouse, plasma, iv, RNB-61 1 mg kg^–1 i.v., no tariquidar, read-out: plasma AUClast) of 2430 ng·h/mL and a clearance ([2]; male, C57/BL6, mouse, plasma, iv, RNB-61 1 mg kg^–1 i.v., no tariquidar, read-out: plasma CL (converted)) of 5.02 mL/min/kg. For the same compound, the half-life ([2]; male, C57/BL6, mouse, plasma, iv, RNB-61 1 mg kg^–1 i.v., no tariquidar, read-out: plasma T1/2 (converted)) was 4 h, the Tmax ([2]; male, C57/BL6, mouse, plasma, iv, RNB-61 1 mg kg^–1 i.v., no tariquidar, read-out: plasma Tmax) was 0.25 h and the “brain Cmax and AUClast higher with tariquidar than RNB-61 alone” value ([2]; tariquidar 5 mg kg^–1) was about 10 fold. The IC50 (ABHD6; Table S1, read-out: ABHD6 (Ki, IC50)) was over 10 µM, the “inhibition of EC hydrolysis by ABHD6” value (ABHD6; screening concentration 10 μM) was “did not inhibit” and the IC50 (TRPV1) was over 50 µM. The “stability in aqueous solution at pH 1” value ([3]; 2 h, 37 °C) was 104.4 % of initial [200 nM], the “stability in aqueous solution at pH 4” value ([3]; 2 h, 37 °C) was 102.7 % of initial [200 nM] and the “stability in aqueous solution at pH 6.5” value ([3]; 2 h, 37 °C) was 102.7 % of initial [200 nM]. The “stability in aqueous solution at pH 8” value ([3]; 2 h, 37 °C) was 100.5 % of initial [200 nM], the “stability in aqueous solution at pH 10” value ([3]; 2 h, 37 °C) was 101.6 % of initial [200 nM] and the “stability in aqueous solution” value ([3]; 2 h at 37 °C at pH 1, 4, 6.5, 8 and 10) was “stable”. The “inhibition of EC hydrolysis by FAAH” value (FAAH) was “did not inhibit”, the Vd ([4]; Wistar (rats), mouse strain not stated for this study, rat, mouse, plasma, intravenous, range rats and mice, read-out: volume of distribution at steady state (Vss)) was 1.6 to 2.4 L/kg and the half-life ([4]; Wistar (rats), mouse strain not stated for this study, rat, mouse, plasma, in rats and mice, read-out: terminal plasma half-life) was 4 to 8 h. The “plasma clearance as share of hepatic blood flow” value ([4]; rodent single-dose PK) was ~5 % of hepatic blood flow.
